Experimental findings from ChEMBL document CHEMBL1147880, “beta-Alkylthio indolyl carbinols: potent nonsteroidal antiandrogens with oral efficacy in a prostate cancer model” (Bioorg Med Chem Lett, 2007) are described below.

Each structure is given as a SMILES string. Calls of active or inactive are those of the source. Bounds are passed on as bounds.

Series [1] concerns Rattus norvegicus. The series is described as follows: Reduction of prostate weight in orally dosed immature rat. In kind it is functional, Prostate gland. Also noted: Activity: scale not given: the % may be the effect or the level left.
Series [2] is described as follows: Half life in mature rat. In kind it is ADME, organism-based. The settings on record: in vivo.
Series [3] deals with Rattus norvegicus. The series is described as follows: Reduction of prostate weight in orally dosed castrated mature rat. In kind it is functional, organism-based. Conditions: Prostate gland.
Series [4] addresses T1, Androgen receptor (Homo sapiens) (UniProt P10275).
T1 sequence (whole entry): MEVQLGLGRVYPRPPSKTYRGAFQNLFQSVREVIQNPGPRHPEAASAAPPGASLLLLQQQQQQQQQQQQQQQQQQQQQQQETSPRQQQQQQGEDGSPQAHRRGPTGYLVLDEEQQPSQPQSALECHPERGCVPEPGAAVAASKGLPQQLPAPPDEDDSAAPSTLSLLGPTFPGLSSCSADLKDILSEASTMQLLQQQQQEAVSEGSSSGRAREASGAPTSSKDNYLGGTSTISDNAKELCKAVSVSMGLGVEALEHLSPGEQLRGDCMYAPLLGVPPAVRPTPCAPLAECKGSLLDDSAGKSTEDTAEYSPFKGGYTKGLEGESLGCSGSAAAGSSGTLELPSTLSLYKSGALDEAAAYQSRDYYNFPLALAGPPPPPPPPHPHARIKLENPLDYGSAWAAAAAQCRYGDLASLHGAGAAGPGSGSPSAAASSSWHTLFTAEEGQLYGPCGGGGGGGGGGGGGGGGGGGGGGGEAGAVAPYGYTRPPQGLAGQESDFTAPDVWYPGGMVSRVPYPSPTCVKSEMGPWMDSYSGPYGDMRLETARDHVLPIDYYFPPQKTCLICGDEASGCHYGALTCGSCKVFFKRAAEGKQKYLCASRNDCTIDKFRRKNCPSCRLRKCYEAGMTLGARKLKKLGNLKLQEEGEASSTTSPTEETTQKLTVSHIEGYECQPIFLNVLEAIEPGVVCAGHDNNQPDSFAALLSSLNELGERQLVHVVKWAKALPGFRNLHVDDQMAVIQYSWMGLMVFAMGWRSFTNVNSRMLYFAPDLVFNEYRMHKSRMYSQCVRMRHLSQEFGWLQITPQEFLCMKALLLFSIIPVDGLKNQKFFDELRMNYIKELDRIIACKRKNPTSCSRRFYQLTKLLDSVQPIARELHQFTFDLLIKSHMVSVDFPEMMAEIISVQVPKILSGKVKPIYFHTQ
The series is described as follows: Binding affinity to AR expressed in COS cells by whole-cell binding assay. In kind it is cell-based.

In series [5] the test system is Rattus norvegicus. Description: Reduction of prostate weight in orally dosed mature rat. In kind it is functional. The settings on record: Prostate gland, po, read-out: ID50 (the source's name).
Series [6] is described as follows: Oral bioavailability in mature rat. In kind it is ADME, organism-based. The settings on record: in vivo.
In a further series the test system is LNCaP. The series is described as follows: Inhibition of tumor growth in LNCaP cells xenografted mouse at 100 mg/kg, po after 51 days. In kind it is functional, organism-based. Further details: dose 100 mg/kg. Conditions: Homo sapiens.

In the series with Rattus norvegicus [1], `CCSC[C@](C)(O)c1cc2cc(F)c(C(F)(F)F)cc2[nH]1` gave an Activity of 58%.

In the series on Rattus norvegicus [1], `CSCC[C@@](C)(O)c1cc2cc([N+](=O)[O-])c(C(F)(F)F)cc2[nH]1` returned an Activity of 44%.

In the case of `CCSC[C@](C)(O)c1cc2cc(N)c(C(F)(F)F)cc2[nH]1`, in the series on Rattus norvegicus [1] (Prostate gland), the outcome was inactive.

`CCc1c([C@@](C)(O)CS(=O)(=O)CC)[nH]c2cc(C(F)(F)F)c(C#N)cc12`: in series [2], the half-life is 0.9 h. Also, the ID50 in the series on Rattus norvegicus [1] was found to be 1.4 mg/day.

On to `CCSC[C@](C)(O)c1cc2cc(C#N)c(C)cc2[nH]1`, for which the outcome with Rattus norvegicus [1] (Prostate gland) was inactive.

`C[C@@](O)(CSCc1ccco1)c1cc2cc([N+](=O)[O-])c(C(F)(F)F)cc2[nH]1` gave an Activity in the series on Rattus norvegicus [1] of 46%.

In the series with Rattus norvegicus [1], `CCSCC(O)(CSCC)c1cc2cc([N+](=O)[O-])c(C(F)(F)F)cc2[nH]1` displayed an Activity of 32%.

`CCSC[C@](O)(CC)c1cc2cc([N+](=O)[O-])c(C(F)(F)F)cc2[nH]1`: the Activity with Rattus norvegicus [1] came to 73%.

As to `CCSCC(C)(O)Cc1cc2cc([N+](=O)[O-])c(C(F)(F)F)cc2[nH]1` (configuration not stated), in the series on Rattus norvegicus [1] (Prostate gland), the outcome was inactive.

For the compound `CCSC[C@](C)(O)c1cc2cc(F)c(Cl)cc2[nH]1`, the Activity in the series with Rattus norvegicus [1] came out at 60%.

`CCSC[C@@](C)(OC)c1cc2cc([N+](=O)[O-])c(C(F)(F)F)cc2[nH]1`: the Activity in the series with Rattus norvegicus [1] stood at 76%.

`CCSC[C@](C)(O)c1cc2cc(C#N)c(C(F)(F)F)cc2n1COC` displayed an Activity with Rattus norvegicus [1] of 37%.

In the series with Rattus norvegicus [1], `CCSCC(C)(O)c1cc2cc([N+](=O)[O-])cc(C(F)(F)F)c2[nH]1` (configuration not stated) had an Activity of 66%.

`C[C@@](O)(CSCc1cccs1)c1cc2cc([N+](=O)[O-])c(C(F)(F)F)cc2[nH]1` returned an Activity in the series on Rattus norvegicus [1] of 28%.

In turn, `CSC[C@@](C)(O)c1cc2cc([N+](=O)[O-])c(C(F)(F)F)cc2[nH]1` registered an Activity in the series on Rattus norvegicus [1] of 66%.

With `CC(C)CSC[C@@](C)(O)c1cc2cc([N+](=O)[O-])c(C(F)(F)F)cc2[nH]1`, the Activity in the series on Rattus norvegicus [1] came out at 75%.

Consider `CCSC[C@](C)(O)c1cc2cc(Cl)c(Cl)cc2[nH]1`, for which the result in the series with Rattus norvegicus [1] (Prostate gland) was inactive.

Consider `CCSCC(O)c1cc2cc([N+](=O)[O-])c(C(F)(F)F)cc2[nH]1` (configuration not stated), for which the Activity with Rattus norvegicus [1] is 30%.

`CCSC[C@](C)(O)c1cc2cc(C#N)c(C(F)(F)F)cc2[nH]1` [listing 1 of 2 here] registered an Activity with Rattus norvegicus [1] of 100%.

As for `CCSC[C@](C)(O)c1cc2cc([N+](=O)[O-])c(C(F)(F)F)cc2o1`, in the series on Rattus norvegicus [1], the Activity turned out to be 38%.

For the compound `CCSC[C@](C)(O)c1cc2cc([N+](=O)[O-])ccc2[nH]1`, the Activity in the series on Rattus norvegicus [1] was 34%.

As for `CCSC[C@](C)(O)c1cc2cc(C#N)c(C(F)(F)F)cc2n1CC`, the Activity in the series on Rattus norvegicus [1] stood at 55%.

In turn, `CC[S+]([O-])C[C@](C)(O)c1cc2cc(C#N)c(C(F)(F)F)cc2[nH]1` (some centres not stated) yielded an Activity in the series on Rattus norvegicus [1] of 62%.

Turning to `CCS(=O)(=O)C[C@](C)(O)c1cc2cc(C#N)c(C(F)(F)F)cc2[nH]1`, the result with Rattus norvegicus [3] was inactive. For the same compound, the result in series [4] was Active. This compound also had a half-life in series [2] of 52 h. In the series on Rattus norvegicus [1], the Activity came out at 100% and the ID50 worked out at 0.89 mg/day. The ED50 with Rattus norvegicus [5] was determined as 22 mg/kg. This compound also returned a bioavailability in series [6] of 68%. The outcome in the series on LNCaP was Active.

Turning to `CCSC[C@@](C)(O)c1cc2cc(C#N)c(C(F)(F)F)cc2[nH]1`, the result with Rattus norvegicus [1] (Prostate gland) was inactive.

The compound `CCCSC[C@@](C)(O)c1cc2cc([N+](=O)[O-])c(C(F)(F)F)cc2[nH]1` registered an Activity in the series with Rattus norvegicus [1] of 40%.

`C[C@@](O)(CSCc1ccccc1)c1cc2cc([N+](=O)[O-])c(C(F)(F)F)cc2[nH]1`: the Activity in the series on Rattus norvegicus [1] was found to be 54%.

For `CCSC[C@](C)(O)c1cc2cc(C#N)c(C(F)(F)F)cc2n1C`, in the series with Rattus norvegicus [1], the Activity worked out at 43%.

As for `O=[N+]([O-])c1cc2cc(C3(O)CCSC3)[nH]c2cc1C(F)(F)F` (configuration not stated), the Activity in the series with Rattus norvegicus [1] amounted to 49%.

`CCSC[C@](C)(O)c1cc2ccccc2[nH]1`: the Activity in the series with Rattus norvegicus [1] is reported as 26%.

`CCSC[C@](C)(O)c1[nH]c2cc(C(F)(F)F)c(C#N)cc2c1C`: in the series with Rattus norvegicus [1], the Activity was determined as 61%. Also, the ED50 in the series with Rattus norvegicus [5] was above 60 mg/kg.

Take `CCSC[C@](C)(O)c1cc2cc(C#N)ncc2[nH]1`: the result with Rattus norvegicus [1] (Prostate gland) was inactive.

In the series on Rattus norvegicus [1], `CCSC[C@](C)(O)c1cc2cc(C#N)c(C(F)(F)F)cc2[nH]1` [listing 2 of 2 here] gave an Activity of 100% and an ID50 of 0.44 mg/day. Besides, the ED50 in the series with Rattus norvegicus [5] came to 22 mg/kg.

In the series with Rattus norvegicus [1], `C[C@@](O)(CSCC(F)(F)F)c1cc2cc([N+](=O)[O-])c(C(F)(F)F)cc2[nH]1` had an Activity of 46%.

Take `CCCCSC[C@@](C)(O)c1cc2cc([N+](=O)[O-])c(C(F)(F)F)cc2[nH]1`: the Activity with Rattus norvegicus [1] is given as 40%.

`CCS(=O)(=O)C[C@](C)(O)c1[nH]c2cc(C(F)(F)F)c(C#N)cc2c1C` gave a half-life in series [2] of 2 h. Besides, the ID50 in the series on Rattus norvegicus [1] turned out to be 2.4 mg/day. The ED50 in the series on Rattus norvegicus [5] was above 30 mg/kg.

In the series with Rattus norvegicus [1], `CC(C)SC[C@@](C)(O)c1cc2cc([N+](=O)[O-])c(C(F)(F)F)cc2[nH]1` had an Activity of 42%.

Take `CCSC[C@](C)(O)c1cc2cc(C#N)c(OC)cc2[nH]1`: the result with Rattus norvegicus [1] (Prostate gland) was inactive.

For `CCSC[C@](C)(O)c1cc2cc(C#N)c(Cl)cc2[nH]1`, the Activity with Rattus norvegicus [1] stood at 83%.

Turning to `CCSC[C@@](C)(O)c1cc2cc([N+](=O)[O-])c(C(F)(F)F)cc2[nH]1`, the Activity in the series on Rattus norvegicus [1] amounted to 75%.

Regarding `CCSC[C@](C)(O)c1cc2cc(C#N)c(C(F)(F)F)cc2n1CC#N`, the result in the series with Rattus norvegicus [1] (Prostate gland) was inactive.

Compound `CCSC[C@](C)(O)c1cc2cc(Cl)c(C(F)(F)F)cc2[nH]1` had an Activity in the series with Rattus norvegicus [1] of 54%.

For the compound `CC(O)(CS(=O)(=O)c1ccc(F)cc1)C(=O)Nc1ccc(C#N)c(C(F)(F)F)c1` (configuration not stated) [BICALUTAMIDE], in the series with Rattus norvegicus [1], the Activity is given as 75% and the ID50 was 0.44 mg/day. In the series on Rattus norvegicus [5], the ED50 is above 44 mg/kg.

Regarding `CCSC[C@](C)(O)c1cc2cc(Cl)ccc2[nH]1`, the outcome with Rattus norvegicus [1] (Prostate gland) was inactive.

Consider `CCSC[C@](C)(O)c1cc2cc(C#N)c(C(F)(F)F)cc2n1CC(F)(F)F`, for which the Activity in the series on Rattus norvegicus [1] came out at 53%.

For `CCSC[C@](C)(O)c1cc2cc(C#N)ccc2[nH]1`, the outcome in the series with Rattus norvegicus [1] (Prostate gland) was inactive.

`CCSC[C@](C)(O)c1cc2cc(C)c(C(F)(F)F)cc2[nH]1`: the Activity with Rattus norvegicus [1] came to 22%.

In general, half-life refers to the time needed for the level to fall by half in the phase considered. Broadly, the bioavailability is the share of a dose that reaches the circulation, judged against a reference dose that is usually intravenous.
